Assays:
[1] = system: facial skin; settings: 0.10% in a gel formulation, applied to facial skin fifteen minutes prior to shaving
Text: Fifteen minutes prior to shaving, a person applies 0.10% brimonidine tartrate in a gel formulation to the facial skin where they will shave.

[2] = system: patients undergoing LASIK surgery; settings: prophylactic dosages prior to LASIK surgery for primary myopia/myopic astigmatism or hyperopic astigmatism; cited from earlier work
[3] = system: area of skin where the incision will be made; settings: bandage soaked in a solution of 0.25%, applied thirty minutes prior to surgery, removed immediately before incision
Text: Thirty minutes prior to undergoing surgery for an appendectomy, a bandage that is soaked in a solution of 0.25% brimonidine is applied to the area of skin where the incision will be made. The bandage is removed immediately before the incision is made.

Brc1c(N=C2NCCN2)ccc2nccnc12.O=C(O)C(O)C(O)C(=O)O [brimonidine tartrate, 5-bromo-6-(2-imidazolidinylideneamino) quinoxaline L-tartrate]
bleeding from cuts while shaving [1]: will prevent excessive bleeding

Brc1c(N=C2NCCN2)ccc2nccnc12 [brimonidine, 5-bromo-6-(2-imidazolidinylideneamino)quinoxaline]
hyperemia [2]: less hyperemia | occurrence of subconjunctival hemorrhage [2]: less occurrence | bleeding and bruising following the surgical procedure [3]: will significantly reduce bleeding and bruising

Source: patent US20110224215A1, “PRE-SURGICAL TREATMENT” (GALDERMA LABORATORIES, INC., priority 2007, published 2011)
